Earlier results on 1 molecule are cited in PubChem BioAssay AID1259409 (Chemical Carcinogenesis Research Information System (CCRIS), 2018).

The series deals with rodent chemically induced tumor inhibition, incidence and multiplicity. The series can be described thus: CCRIS tumor inhibitor studies. The conditions noted are these: Dose [Inhibitor]: 0, Route [Inhibitor]: ORAL.

In the case of `COc1ccc2c(c1)c(CC(=O)O)c(C)n2C(=O)c1ccc(Cl)cc1`, the “tumour outcome (control, treated, inhibition, significance)” value is 14/15 (93%), 4/15 (27%), 71%, p<0.01 (Carcinogen: N-BUTYL-N-(4-HYDROXYBUTYL)NITROSAMINE, 3817-11-6, 20 PPM IN DRINKING WATER FOR 40 WK BEGINNING POST CARCINOGEN TREATMENT (STUDY DURATION: 44 WK), Species: RAT, Strain/Sex: F344/MALE, Target Tissue: Type of Lesion: URINARY BLADDER: PAPILLOMA, Dose [Carcinogen]: 0.05% IN DRINKING WATER FOR 4 WK, Promoter: BUTYLATED HYDROXYANISOLE, 25013-16-5); 15/15 (100%), 9/15 (60%), 40%, p<0.01 (Carcinogen: N-BUTYL-N-(4-HYDROXYBUTYL)NITROSAMINE, 3817-11-6, 20 PPM IN DRINKING WATER FOR 40 WK BEGINNING POST CARCINOGEN TREATMENT (STUDY DURATION: 44 WK), Species: RAT, Strain/Sex: F344/MALE, Target Tissue: Type of Lesion: URINARY BLADDER: PAPILLOMA, Dose [Carcinogen]: 0.05% IN DRINKING WATER FOR 4 WK, Promoter: SODIUM L-ASCORBATE, 134-03-2); 10/15 (67%), 1/15 (7%), 90%, p<0.01 (Carcinogen: N-BUTYL-N-(4-HYDROXYBUTYL)NITROSAMINE, 3817-11-6, 20 PPM IN DRINKING WATER FOR 40 WK BEGINNING POST CARCINOGEN TREATMENT (STUDY DURATION: 44 WK), Species: RAT, Strain/Sex: F344/MALE, Target Tissue: Type of Lesion: URINARY BLADDER: TRANSITIONAL CELL CARCINOMA, Dose [Carcinogen]: 0.05% IN DRINKING WATER FOR 4 WK, Promoter: BUTYLATED HYDROXYANISOLE, 25013-16-5); 15/15 (100%), 5/15 (33%), 67%, p<0.01 (Carcinogen: N-BUTYL-N-(4-HYDROXYBUTYL)NITROSAMINE, 3817-11-6, 20 PPM IN DRINKING WATER FOR 40 WK BEGINNING POST CARCINOGEN TREATMENT (STUDY DURATION: 44 WK), Species: RAT, Strain/Sex: F344/MALE, Target Tissue: Type of Lesion: URINARY BLADDER: TRANSITIONAL CELL CARCINOMA, Dose [Carcinogen]: 0.05% IN DRINKING WATER FOR 4 WK, Promoter: SODIUM L-ASCORBATE, 134-03-2); 14%, 4%, 71%, p<0.05 (Carcinogen: N-BUTYL-N-(4-HYDROXYBUTYL)NITROSAMINE, 53609-64-6, 7.5 MG/KG OF DIET STARTING 1 WK PRIOR TO CARCINOGEN DOSE FROM 49 D OF AGE AND CONTINUING FOR DURATION OF STUDY (STUDY, Species: MOUSE, Strain/Sex: BDF/MALE, Target Tissue: Type of Lesion: BLADDER: CARCINOMA, Dose [Carcinogen]: 7.5 MG IN 0.1 ML OF ETHANOL:WATER (20:80) 1/WK FOR 8 WK, Promoter: NONE USED); 13%, 1%, 92%, p<0.01 (Carcinogen: N-BUTYL-N-(4-HYDROXYBUTYL)NITROSAMINE, 53609-64-6, 7.5 MG/KG OF DIET STARTING 1 WK PRIOR TO CARCINOGEN DOSE FROM 49 D OF AGE AND CONTINUING FOR DURATION OF STUDY (STUDY, Species: MOUSE, Strain/Sex: BDF/MALE, Target Tissue: Type of Lesion: BLADDER: PAPILLOMA, Dose [Carcinogen]: 7.5 MG IN 0.1 ML OF ETHANOL:WATER (20:80) 1/WK FOR 8 WK, Promoter: NONE USED). Also, the “tumour outcome (control, treated, inhibition, significance)” value reads like this: (Carcinogen: N-BUTYL-N-(4-HYDROXYBUTYL)NITROSAMINE, 53609-64-6, 15 MG/KG OF DIET STARTING 1 WK PRIOR TO CARCINOGEN DOSE AT 49 D OF AGE AND CONTINUING FOR DURATION OF STUDY (STUDY DU, Species: MOUSE, Strain/Sex: BDF/MALE, Target Tissue: Type of Lesion: BLADDER: CARCINOMA, Dose [Carcinogen]: 7.5 MG IN 0.1 ML OF ETHANOL:WATER (20:80) 1/WK FOR 8 WK, Promoter: NONE USED) 14%, 0%, 100%, p<0.01; (Carcinogen: N-BUTYL-N-(4-HYDROXYBUTYL)NITROSAMINE, 53609-64-6, 15 MG/KG OF DIET STARTING 1 WK PRIOR TO CARCINOGEN DOSE AT 49 D OF AGE AND CONTINUING FOR DURATION OF STUDY (STUDY DU, Species: MOUSE, Strain/Sex: BDF/MALE, Target Tissue: Type of Lesion: BLADDER: PAPILLOMA, Dose [Carcinogen]: 7.5 MG IN 0.1 ML OF ETHANOL:WATER (20:80) 1/WK FOR 8 WK, Promoter: NONE USED) 13%, 0%, 100%, p<0.01; (Carcinogen: N-ETHYL-N-NITROSOUREA, 759-73-9, 20 MG/L IN DRINKING WATER FOR 12 MO ADMINISTERED TO OFFSPRING OF CARCINOGEN-TREATED MOTHERS (STUDY DURATION: 12 MO), Species: RAT, Strain/Sex: ALBINO/MALE, FEMALE, Target Tissue: Type of Lesion: BRAIN: TUMOR, Dose [Carcinogen]: 75 MG/KG BW ADMINISTERED INTRAPERITONEALLY TO MOTHERS 21 D POST CONCEPTION, Promoter: NONE USED) 36/42 (86%), 14/25 (56%), 35%, p<0.05; (Carcinogen: N-ETHYL-N-NITROSOUREA, 759-73-9, 20 MG/L IN DRINKING WATER FOR 12 MO ADMINISTERED TO OFFSPRING OF CARCINOGEN-TREATED MOTHERS (STUDY DURATION: 12 MO), Species: RAT, Strain/Sex: ALBINO/MALE, FEMALE, Target Tissue: Type of Lesion: KIDNEY: TUMOR, Dose [Carcinogen]: 75 MG/KG BW ADMINISTERED INTRAPERITONEALLY TO MOTHERS 21 D POST CONCEPTION, Promoter: NONE USED) 19/42 (45%), 8/25 (32%), 29%, not significant.
